Measured values as given in patent US12257290B2, “PIC1 inhibition of myeloperoxidase oxidative activity in an animal model” (priority 2018, dated 2025).
Ends that are not written are not given here.

Experiments:
[1] = 'Two-hit' TRALI model: LPS then 30% mismatched human RBC transfusion; assay type: in vivo, Wistar rats
Protocol: In this Example, Wistar rats were primed with lipopolysaccharide followed by 30% transfusion of mismatched erythrocytes, against which the rats have preexisting antibodies. Sham and vehicle animals were used as controls with a subgroup of animals receiving PIC1 two minutes before transfusion. At 4 hours, blood was isolated for complete blood count. Isolated lung tissue was stained with hematoxylin and eosin and myeloperoxidase (MPO) activity in lung tissue was quantified in a functional assay. Free DNA in plasma was detected by PicoGreen staining.
Lung tissue stained with H&E was analyzed by a clinician blinded to the experimental groups (vehicle only and PIC1-treated animals). Neutrophil infiltration and cell wall thickening were scored on a scale of 0-4: 0=normal lungs, 1=minor lung involvement, 2=moderate lung involvement, 3=serious lung involvement, 4=severe lung involvement.
A myeloperoxidase (MPO) activity assay was conducted as follows. Frozen lung tissue was diced and homogenized on ice in 50 mM potassium phosphate, and centrifuged at 10,000 RPM at 4° C. for 15 minutes after which the supernatant was discarded. To solubilize MPO from the neutrophils in lung tissue, the pellet was resuspended in […] 50 mM hexadecyltrimethylammonium bromide (HTAB), homogenized by sonication and snap frozen in liquid nitrogen. This process was repeated twice and samples were then centrifuged at 10,000 RPM at 4° C. for 10 minutes and supernatant collected.
Peroxidase activity in these samples was measured using 10-actyl-3,7-dihydroxyphenoxazine (ADHP, Amplex Red) following MPO antibody capture from samples as previously described. Fluorescence was read from […] in […] which provided twenty-five data points per well at an excitation wavelength of 535 nm and emission wavelength of 590 nm using a BioTek microplate reader. Purified MPO was used as a positive control and phosphate buffered saline (PBS) as a negative control. All activity assays were performed in triplicate.
Free DNA was measured by PicoGreen in rat plasma as previously described. Briefly, plasma samples were diluted 1:10 in 10 mM Tris-HCl, 1 mM EDTA, pH 8.0 (TE) buffer and 50 uL of each sample was added to the wells along with 50 uL of a 1:200 dilution of PicoGreen (Life Technologies) and incubated at room temperature for 10 minutes, protected from light. A DNA standard curve was prepared in TE Buffer. The fluorescence was then read at an excitation wavelength of 485 nm and an emission wavelength of 520 nm using a BioTek microplate reader. All free DNA measurements were done in triplicate.
For the ‘two-hit’ model, rats were sedated as above and lipopolysaccharide (LPS, from Salmonella enterica serotype enteritidis, 2 mg/kg [Millipore-Sigma]) was administered intravascularly through the indwelling jugular catheter as the ‘first-hit’ similar to other TRALI models (reviewed in references). This was followed 30 minutes later by 30% mismatched RBC transfusion as the ‘second-hit’. Blood samples were collected prior to LPS administration and at 4 hours after RBC transfusion for analysis of blood chemistries (SuperChem and CBC, Antech Diagnostics). Upon completion of the final blood draw, the animals were euthanized using isofluorane and guillotine. A necropsy was completed to collect organs for histopathology. Lungs acquired from each animal were weighed and then stored in formalin or frozen at −70° C. Hematoxylin and eosin (H&E) stained sections of formalin fixed tissue were reviewed in a blinded fashion.
To determine if prophylactic administration of PIC1 would attenuate TRALI pathogenesis, this transfusion-based antibody-initiated complement-mediated TRALI model was utilized. Twenty-eight minutes after IV LPS infusion, 160 mg/kg PIC1 or vehicle control was administered IV followed by the 30% mismatched RBC transfusion. […]

[2] = system: complement activation in normal human serum (NHS); assay: Heat-aggregated IgG immune complex-initiated complement activation in normal human serum (C5a, iC3b, SC5b-9 ELISA); assay type: biochemical
Protocol: Immune complex activation of NHS was performed as follows. NHS was stimulated with three different types of immune complexes (IC) to induce complement activation. Heat-aggregated IgG was generated by incubating intravenous immune globulin at 50 mg/ml at 63° C. for 30 min [26]. Ovalbumin-antiovalbumin immune complexes were made by incubating 0.01 ml anti-ovalbumin antibody with an equal volume of ovalbumin, at 0.25 mg/nil, at 37° C. for 30 minutes and then storing at 4° C. overnight. C1 immune complexes were formed by incubating 0.02 ml anti-C1q goat sera with 5 μl of C1, at 200 μg/ml, at 30° C. for 30 minutes and then placing in an ice water bath. For C5a and C5b-9 assays, activation of NHS was performed by pre-incubating 5% NHS with titrating concentrations of PA-dPEG24 in 0.3 ml of GVBS^++ buffer for 30 minutes at room temperature. Then […] of either heat-aggregated IVIg, or ovalbumin IC, or 5 μI of C1-antiC1q IC was added to the mix for 30 min. at 37° C. This reaction was stopped with the addition of an equal volume of GVBS^−−. For iC3b detection, 1% NHS was used and the rest of the protocol remained the same.
ELISA was performed as follows. Samples were assayed using C5a, iC3b, and SC5b-9 ELISAs. […] Colorimetric detection was performed with TMB, stopped with H2SO4 and read on a BioTek Synergy HT plate reader at 450 nm. […]

IALILEPICCQERAA-dPEG24 (cysteine pairing not given here) [PA-dPEG24, 15-amino acid PEGylated peptide, 24 PEG moieties at the C-terminus]
lung weight ([1]; 160 mg/kg IV 2 min before transfusion, 4 h after transfusion, vs vehicle p=0.001): significant reduction | lung histology (H&E) ([1]; 160 mg/kg IV prophylactic, 4 h after transfusion): decreased injury to the lung architecture | MPO activity in lung tissue (Amplex Red) ([1]; 5 minutes read, vs vehicle p=0.005): significantly reduced | MPO activity in lung tissue (Amplex Red) ([1]; 10 minutes read, vs vehicle p=0.002): significantly reduced | lung injury score (neutrophil infiltration and cell wall thickening), mean ([1]; scale 0-4, 160 mg/kg IV, vs vehicle p=0.003): 1.5 | free DNA in plasma (PicoGreen) ([1]; vs vehicle p=0.02): significantly reduced | blood levels of white blood cells ([1]; vs vehicle p=0.043): significant increase | blood levels of lymphocytes ([1]; vs vehicle p=0.048): significant increase | circulating neutrophils ([1]; vs vehicle p=0.101): trends towards increased numbers | circulating monocytes ([1]; vs vehicle p=0.229): trends towards increased numbers | blood levels of creatinine, BUN/creatinine and AST ([1]; vs vehicle, data not shown): reduction | kidney weights ([1]; vs vehicle, data not shown): reduced kidney weights | reduction of C5a generation ([2]; 1 mM PA-dPEG24, vs heat-aggregated IgG with no inhibitor, P=0.002): 61% | PA-dPEG24 concentration giving statistically significant inhibition of effector (C5a, iC3b, SC5b-9) generation ([2]; heat-aggregated IgG in NHS, each assay, P<0.05 vs no inhibitor): ≥ 0.5 mM
